How the values were obtained:
Assay type in all cases: cell-based
[1] = molecular target: T1, cystic fibrosis transmembrane conductance regulator (CFTR) (Mus musculus, UniProt P26361)
[2] = molecular target: T1, cystic fibrosis transmembrane conductance regulator (CFTR); assay: whole-cell patch clamp of native Cl- current in mouse sperm; details: read-out: % inhibition of db-cAMP-stimulated current (at 5 μM)
[3] = molecular target: T1, cystic fibrosis transmembrane conductance regulator (CFTR); assay: whole-cell patch clamp; details: read-out: % stimulation at 20 μM

T1 sequence (P26361 whole entry): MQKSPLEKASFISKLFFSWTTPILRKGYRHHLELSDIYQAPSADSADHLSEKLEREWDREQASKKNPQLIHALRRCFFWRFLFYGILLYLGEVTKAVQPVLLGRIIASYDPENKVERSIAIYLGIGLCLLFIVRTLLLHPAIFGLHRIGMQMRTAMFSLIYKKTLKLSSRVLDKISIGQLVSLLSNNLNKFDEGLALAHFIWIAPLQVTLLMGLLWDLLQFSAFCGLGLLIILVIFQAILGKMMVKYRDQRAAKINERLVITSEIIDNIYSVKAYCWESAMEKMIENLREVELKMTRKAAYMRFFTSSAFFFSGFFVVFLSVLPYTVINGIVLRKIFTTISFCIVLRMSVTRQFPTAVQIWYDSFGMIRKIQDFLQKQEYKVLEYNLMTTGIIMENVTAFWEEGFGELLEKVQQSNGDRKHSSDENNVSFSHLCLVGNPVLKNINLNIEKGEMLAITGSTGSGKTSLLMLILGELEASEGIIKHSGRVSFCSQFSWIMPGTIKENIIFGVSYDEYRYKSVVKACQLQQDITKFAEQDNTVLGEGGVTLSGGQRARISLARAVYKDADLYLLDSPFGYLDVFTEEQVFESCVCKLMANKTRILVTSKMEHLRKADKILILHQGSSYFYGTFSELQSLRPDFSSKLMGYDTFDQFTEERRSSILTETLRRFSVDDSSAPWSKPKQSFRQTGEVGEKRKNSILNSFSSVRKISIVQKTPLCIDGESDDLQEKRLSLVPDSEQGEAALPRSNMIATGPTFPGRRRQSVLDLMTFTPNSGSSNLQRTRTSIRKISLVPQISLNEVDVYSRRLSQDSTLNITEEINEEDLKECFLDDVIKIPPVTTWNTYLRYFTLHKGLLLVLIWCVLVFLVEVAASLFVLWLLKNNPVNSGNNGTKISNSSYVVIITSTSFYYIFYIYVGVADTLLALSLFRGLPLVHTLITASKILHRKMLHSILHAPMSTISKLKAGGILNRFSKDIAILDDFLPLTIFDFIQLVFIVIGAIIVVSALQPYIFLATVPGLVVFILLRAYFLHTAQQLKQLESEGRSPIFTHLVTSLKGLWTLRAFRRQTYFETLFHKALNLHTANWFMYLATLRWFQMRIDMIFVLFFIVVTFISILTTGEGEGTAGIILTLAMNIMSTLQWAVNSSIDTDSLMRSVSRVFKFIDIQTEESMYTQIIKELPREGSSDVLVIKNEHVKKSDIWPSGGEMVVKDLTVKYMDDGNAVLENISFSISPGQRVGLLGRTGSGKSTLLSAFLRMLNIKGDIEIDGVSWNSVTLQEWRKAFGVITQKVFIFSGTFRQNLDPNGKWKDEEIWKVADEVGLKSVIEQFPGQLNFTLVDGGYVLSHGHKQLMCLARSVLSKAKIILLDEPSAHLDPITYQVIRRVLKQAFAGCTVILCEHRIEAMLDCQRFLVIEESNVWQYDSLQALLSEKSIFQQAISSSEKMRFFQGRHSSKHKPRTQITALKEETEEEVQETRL

O=C(O)c1ccccc1Nc1ccccc1 [DPC]
IC50 [1]: ~175 µM

O=C(O)c1ccc(/C=C2\SC(=S)N(c3cccc(C(F)(F)F)c3)C2=O)cc1 [CFTRinh-172, 3-[(3-trifluoromethyl)phenyl]-5-[(4 carboxyphenyl)methylene]-2-thioxo-4thiazolidinone]
inhibition at 5 µM [2]: 60%

O=c1c(-c2ccc(O)cc2)coc2cc(O)cc(O)c12 [genistein]
activation at 20 µM [3]: 54 ± 0.5%
